These results are taken from US8138168B1 (Takeda Pharmaceutical Company Limited, priority 2007, dated 2012).

The target of the first experiment is T1, Recombinant human renin (Homo sapiens, UniProt P00797).
T1 construct: isolate the active form (residues 67-406); made in house; host or cells: FreeStyle 293-F cells (transient expression of pcDNA3.1(+)/hREN)
T1 sequence (P00797 67-406): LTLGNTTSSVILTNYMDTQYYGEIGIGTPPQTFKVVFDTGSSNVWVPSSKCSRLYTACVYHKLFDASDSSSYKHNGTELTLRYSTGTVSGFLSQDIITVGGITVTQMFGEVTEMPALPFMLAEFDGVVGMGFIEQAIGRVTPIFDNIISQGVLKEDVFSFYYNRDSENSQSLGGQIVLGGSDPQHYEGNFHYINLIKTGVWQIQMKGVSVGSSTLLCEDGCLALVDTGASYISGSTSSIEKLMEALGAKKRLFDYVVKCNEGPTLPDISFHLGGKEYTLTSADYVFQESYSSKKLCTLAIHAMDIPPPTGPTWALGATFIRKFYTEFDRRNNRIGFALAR
Kind of experiment: In vitro enzymatic activity assay of renin inhibitors (fluorogenic peptide substrate). It counts as biochemical. As to conditions: isomers separated by preparative SFC; more or less active isomer as renin inhibitor. The method in brief: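 Recombinant human renin (3 nM final) pre-incubated 10 min at 37 °C with compounds in pH 7.4 Hepes/EDTA/DTT/0.1 mg/mL BSA/Brij35 buffer (optionally plus 2% BSA), 5% DMSO final; fluorogenic QXL520/HiLyteFluo488 peptide substrate added.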
On to “(R)-3-amino-4-(4-chlorophenyl)-1-((S)-3-hydroxy-3-(1-(3-methoxypropyl)-1H-benzo[d]imidazol-2-yl)piperidin-1-yl)butan-1-one [Compound 247]”, for which the “Eutomer / distomer designation of the separated stereoisomers” value is on record as “Eutomer”.

The experiment is the same for the next values; noted with them: read-out: IC50 of Exemplified Compounds Against Renin.
Regarding `COCCCn1c([C@@H]2CCCN(C(=O)C[C@H](N)Cc3ccc(-c4ccc5c(c4)CC(=O)N5C)cc3)C2)nc2c(C)cccc21` [Compound 498, 5-(4-((R)-2-amino-4-((R)-3-(1-(3-methoxypropyl)-4-methyl-1H-benzo[d]imidazol-2-yl)piperidin-1-yl)-4-oxobutyl)phenyl)-1-methylindolin-2-one], the IC50 is less than 100 nM.

Take `COCCCn1c([C@@H]2CCCN(C(=O)C[C@H](N)Cc3ccc(-c4ccc5[nH]ncc5c4)cc3)C2)nc2c(C)cccc21` [Compound 499, (R)-4-(4-(1H-indazol-5-yl)phenyl)-3-amino-1-((R)-3-(1-(3-methoxypropyl)-4-methyl-1H-benzo[d]imidazol-2-yl)piperidin-1-yl)butan-1-one]: the IC50 is less than 100 nM. Same read-out and setting: the result for `COCCCn1c([C@@H]2CCCN(C(=O)C[C@H](N)Cc3ccc(-c4ccc5[nH]nc(N)c5c4)cc3)C2)nc2c(C)cccc21` [Compound 500, (R)-3-amino-4-(4-(3-amino-1H-indazol-5-yl)phenyl)-1-((R)-3-(1-(3-methoxypropyl)-4-methyl-1H-benzo[d]imidazol-2-yl)piperidin-1-yl)butan-1-one] reads less than 100 nM; that for `CNC(=O)CCn1c([C@@H]2CCCN(C(=O)C[C@H](N)Cc3ccc(-c4ccc5c(c4)CCO5)cc3)C2)nc2c(C)cccc21` [Compound 501, 3-(2-((R)-1-((R)-3-amino-4-(4-(2,3-dihydrobenzofuran-5-yl)phenyl)butanoyl)piperidin-3-yl)-4-methyl-1H-benzo[d]imidazol-1-yl)-N-methylpropanamide], 100 to 1000 nM; that for `COCCCn1c([C@@H]2CCCN(C(=O)C[C@H](N)Cc3ccc4ccccc4c3)C2)nc2ccc(Cl)nc21` [Compound 502, (3R)-3-amino-1-(3-(5-chloro-3-(3-methoxypropyl)-3H-imidazo[4,5-b]pyridin-2-yl)piperidin-1-yl)-4-(naphthalen-2-yl)butan-1-one], greater than 1000 nM. Same read-out and setting: the result for `COCCCn1c([C@@H]2CCCN(C(=O)C[C@H](N)Cc3ccc4ccccc4c3)C2)nc2ccc(OC)nc21` [Compound 503, (3R)-3-amino-1-(3-(5-methoxy-3-(3-methoxypropyl)-3H-imidazo[4,5-b]pyridin-2-yl)piperidin-1-yl)-4-(naphthalen-2-yl)butan-1-one] reads 100 to 1000 nM; that for `COCCCn1c([C@@H]2CCCN(C(=O)C[C@H](N)Cc3ccc(-c4ccc(O)nc4)cc3)C2)nc2c(C)ccnc21` [Compound 504, (R)-3-amino-4-(4-(6-hydroxypyridin-3-yl)phenyl)-1-((R)-3-(3-(3-methoxypropyl)-7-methyl-3H-imidazo[4,5-b]pyridin-2-yl)piperidin-1-yl)butan-1-one], 100 to 1000 nM. Same read-out and setting: for `COCCCn1c([C@@H]2CCCN(C(=O)C[C@H](N)Cc3ccc(-c4ccccc4)cc3)C2)nc2c(C)ccnc21` [Compound 505, (R)-3-amino-4-(biphenyl-4-yl)-1-((R)-3-(3-(3-methoxypropyl)-7-methyl-3H-imidazo[4,5-b]pyridin-2-yl)piperidin-1-yl)butan-1-one] the value was less than 100 nM; for `COCCCn1c([C@@H]2CCCN(C(=O)[C@@H]3CN(c4cccc(C#N)c4)C[C@H]3N)C2)nc2ccccc21` [Compound 507], 100 to 1000 nM; for `COCCCn1c([C@@H]2CCCN(C(=O)[C@@H]3CN(c4ccc([N+](=O)[O-])cc4)C[C@H]3N)C2)nc2ccccc21` [Compound 508, ((3R,4S)-4-amino-1-(4-nitrophenyl)pyrrolidin-3-yl)((R)-3-(1-(3-methoxypropyl)-1H-benzo[d]limidazol-2-yl)piperidin-1-yl)methanone], 100 to 1000 nM. Take `Nc1ncc(-c2ccc(C[C@@H](N)CC(=O)N3CCC[C@@H](c4nc5ccccc5n4CCF)C3)cc2)cn1` [Compound 509, (R)-3-amino-4-(4-(2-aminopyrimidin-5-yl)phenyl)-1-((R)-3-(1-(2-fluoroethyl)-1H-benzo[d]imidazol-2-yl)piperidin-1-yl)butan-1-one]: the IC50 fell in the range of 100 to 1000 nM.
